This note sets out measurements from US20250205264A1, “METHODS OF USING AVERMECTIN COMPOSITIONS FOR THE TREATMENT OF SPASTICITY AND DOSING REGIMENS” (priority 2022, published 2025).

The test system of this assay is pentylenetetrazol (PTZ)-induced ictal brain activity. As to the kind of experiment: Modulation of PTZ-induced seizures, BOLD fMRI. It counts as in vivo, male Wistar rats. Conditions: for PTZ-induced brain activity: positive control compounds, all tested brain regions, high statistical significance. The method, then:
Functional MRI (fMRI) was performed using a high-field preclinical MRI system in anesthetized male Wistar rats in order to determine the modulation of pentylenetetrazol (PTZ)-induced ictal brain activity by chronic treatment with test compound (TC). […] Vehicle and 3 mg/kg Alprazolam served as controls (see, Table 11) Seizures were induced with PTZ in each experimental group. A schematic of the study design can be seen in FIG. 6. Various physiological parameters were also measured throughout the experiment including body weight, CO2 levels, blood pH, and heart rate. […] Vehicle and 3 mg/kg Alprazolam served as controls (see, Table 12).

For `CN1C(=O)CN=C(c2ccccc2)c2cc(Cl)ccc21` [Diazepam], the PTZ-induced brain activity entry is listed as “effectively cancelled PTZ-induced brain activity”.

Consider `Cc1nnc2n1-c1ccc(Cl)cc1C(c1ccccc1)=NC2` [Alprazolam], for which the PTZ-induced brain activity entry is reported as “effectively cancelled PTZ-induced brain activity”. Also, under “FIG. 7A, 3 mg/kg+PTZ, two-way ANOVA”, the “Statistical significances of BOLD fMRI AUC, Vehicle vs. Alprazolam (brain regions)” value is listed as “in all”.
